Columns and labels:
Assay in all cases: relative viability (nuclei count vs DMSO), 5 days (fraction); higher = more cells survive
Dabrafenib + Trametinib = compound: CC(C)(C)c1nc(-c2cccc(NS(=O)(=O)c3c(F)cccc3F)c2F)c(-c2ccnc(N)n2)s1 [Dabrafenib] + CC(=O)Nc1cccc(-n2c(=O)n(C3CC3)c(=O)c3c(Nc4ccc(I)cc4F)n(C)c(=O)c(C)c32)c1 [Trametinib] (partner 0.02 µM)
How it was run: (§1)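 A single step with final 0.05% Triton X-100, 1% formaldehyde and 1 ug/ml Hoechst fixed the cells and stained nuclei 5 days after treatment. Lung cancer cell lines in 1536-well plates had been treated by pin tool the day after seeding with one drug alone or a fixed anchor-drug dose plus five library-drug doses (not always all listed) in √10 steps, and nuclei were counted on 4× images. Relative viability is the ratio of nuclei in treated wells to nuclei in vehicle wells, taken as the median of duplicate plates.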

Dabrafenib + Pictilisib = compound: CC(C)(C)c1nc(-c2cccc(NS(=O)(=O)c3c(F)cccc3F)c2F)c(-c2ccnc(N)n2)s1 [Dabrafenib] + CS(=O)(=O)N1CCN(Cc2cc3nc(-c4cccc5[nH]ncc45)nc(N4CCOCC4)c3s2)CC1 [Pictilisib] (partner 1 µM)
How it was run: as §1

VX-702 + Phenformin = compound: NC(=O)c1ccc(N(C(N)=O)c2c(F)cccc2F)nc1-c1ccc(F)cc1F [VX-702] + N=C(N)NC(=N)NCCc1ccccc1 [Phenformin] (partner 250 µM)
How it was run: as §1

Dabrafenib + AZD7762 = compound: CC(C)(C)c1nc(-c2cccc(NS(=O)(=O)c3c(F)cccc3F)c2F)c(-c2ccnc(N)n2)s1 [Dabrafenib] + NC(=O)Nc1cc(-c2cccc(F)c2)sc1C(=O)N[C@H]1CCCNC1 [AZD7762] (partner 0.2 µM)
How it was run: as §1

Cell Line	relative viability (Dabrafenib + Trametinib; first compound 0.003 µM)	relative viability (Dabrafenib + Trametinib; first compound 0.009487 µM)	relative viability (Dabrafenib + Trametinib; first compound 0.03 µM)	relative viability (Dabrafenib + Trametinib; first compound 0.09487 µM)	relative viability (Dabrafenib + Trametinib; first compound 0.3 µM)	relative viability (Dabrafenib + Pictilisib; first compound 0.003 µM)	relative viability (Dabrafenib + Pictilisib; first compound 0.009487 µM)	relative viability (Dabrafenib + Pictilisib; first compound 0.03 µM)	relative viability (Dabrafenib + Pictilisib; first compound 0.09487 µM)	relative viability (Dabrafenib + Pictilisib; first compound 0.3 µM)	relative viability (VX-702 + Phenformin; first compound 0.02 µM)	relative viability (VX-702 + Phenformin; first compound 0.2 µM)	relative viability (VX-702 + Phenformin; first compound 0.6325 µM)	relative viability (VX-702 + Phenformin; first compound 2 µM)	relative viability (Dabrafenib + AZD7762; first compound 0.003 µM)	relative viability (Dabrafenib + AZD7762; first compound 0.009487 µM)	relative viability (Dabrafenib + AZD7762; first compound 0.03 µM)	relative viability (Dabrafenib + AZD7762; first compound 0.09487 µM)	relative viability (Dabrafenib + AZD7762; first compound 0.3 µM)
COR-L23	0.528	0.432	0.626	0.512	0.656	0.8	0.888	0.704	0.632	0.647	0.484	0.492	0.437	0.494					
NCI-H2342	0.808	0.79	0.76	0.866	0.927						0.594	0.686	0.58	0.719	0.364	0.486	0.417	0.481	0.55
COR-L 105	0.418	0.478	0.46	0.479	0.521	0.297	0.435	0.353	0.454	0.474	0.529	0.478	0.448	0.459					
A549						0.497	0.487	0.519	0.544	0.64	0.128	0.19	0.154	0.137					
NCI-H2009	0.262	0.266	0.312	0.354	0.399	0.292	0.797	0.475	0.334	0.346	0.572	0.56	0.577	0.617					
NCI-H1563						0.591	0.628	0.6	0.633	0.583	0.702	0.684	0.694	0.592					
NCI-H1299						0.74	0.756	0.797	0.464	0.441									
NCI-H1648	0.457	0.524		0.425	0.585										0.638	0.797		0.611	0.802
SW 1573	0.608	0.547	0.669	0.648	0.705	0.501	0.474	0.454	0.426	0.505	0.364	0.261	0.282	0.327					
NCI-H2023	0.533	0.547	0.55	0.581	0.663	0.171	0.271	0.207	0.283	0.267	0.407	0.469	0.413	0.559					
NCI-H1703						0.257	0.255	0.225	0.249	0.226									0.136
SK-LU-1		0.437	0.329	0.488	0.456		0.668	0.385	0.416	0.397	0.636	0.508	0.524	0.531					
EBC-1						0.397	0.37	0.272	0.184	0.227									

From the supplement of paper PMC10307832
